This is an account of results in patent US20220282217A1, “COMPOSITIONS AND METHODS FOR PREPARING T CELL COMPOSITIONS AND USES THEREOF” (priority 2019, published 2022).

Where two headings read alike, the source gives them in different places. Where a SMILES comes first, the peptide text is derived from it.

In the assay the target is HLA-A02.01 (Homo sapiens, UniProt P04439, D140Y/D185E/D98H/E176V/E277Q/G131W/G231S/I119V/I121R/I166T/I218V/L300P/L318F/N151K/N90K/P208A/P217A/Q86G/Q94H/R138H/R169H/T345S). Briefly: Class I MHC peptide binding affinity (displacement of radiolabeled reference peptide). As to conditions: allele A02.01, (nM)). The method, then: In brief, MHCI complexes were prepared and bound to radiolabeled reference peptides. Peptides were incubated at varying concentrations with these complexes for 2 days, and the amount of remaining radiolabeled peptide bound to […] was measured using size exclusion gel-filtration.

Setting [1] is: read-out: Observed Affinity (IC50.

On to `CC(C)C[C@H](NC(=O)[C@H](C)N)C(=O)N[C@@H](Cc1c[nH]c2ccccc12)C(=O)N[C@@H](CCC(=O)O)C(=O)N[C@@H](CS)C(=O)N[C@@H](CO)C(=O)N[C@@H](CC(C)C)C(=O)N1CCC[C@H]1C(=O)N[C@@H](CCC(N)=O)C(=O)N[C@@H](C)C(=O)O` (H-ALWECSLPQA-OH; N-terminus and C-terminus assumed), for which the IC50 (in general, the concentration needed to halve the response being measured) under setting [1] turned out to be 9 nM.

On to `CC(C)C[C@H](NC(=O)[C@H](CO)NC(=O)[C@H](CCCNC(=N)N)NC(=O)[C@H](Cc1c[nH]c2ccccc12)NC(=O)[C@H](CCC(N)=O)NC(=O)[C@@H](NC(=O)CNC(=O)[C@H](C)NC(=O)[C@H](CCC(N)=O)NC(=O)[C@H](C)N)C(C)C)C(=O)O` (H-AQAGVQWRSL-OH; N-terminus and C-terminus assumed), for which the IC50 under setting [1] was 670 nM. On the same count and under the same terms, then `CC[C@H](C)[C@H](NC(=O)[C@@H]1CCCN1C(=O)[C@H](CCCNC(=N)N)NC(=O)[C@H](CCCNC(=N)N)NC(=O)[C@H](CC(N)=O)NC(=O)[C@H](CCSC)NC(=O)[C@H](CO)NC(=O)CNC(=O)[C@H](CCSC)NC(=O)[C@@H](N)CS)C(=O)O` (H-CMGSMNRRPI-OH; N-terminus and C-terminus assumed), with 1990 nM; and `CC[C@H](C)[C@H](NC(=O)[C@H](CCC(N)=O)NC(=O)[C@H](Cc1c[nH]c2ccccc12)NC(=O)[C@H](Cc1ccccc1)NC(=O)CNC(=O)[C@H](CS)NC(=O)[C@H](CC(C)C)NC(=O)[C@H](C)NC(=O)[C@@H](N)Cc1ccccc1)C(=O)O` (H-FALCGFWQI-OH; N-terminus and C-terminus assumed), with 0.4 nM. Compound `CC[C@H](C)[C@H](NC(=O)[C@@H]1CCCN1C(=O)[C@H](CC(C)C)NC(=O)[C@H](CC(C)C)NC(=O)[C@H](CCC(=O)O)NC(=O)[C@@H](N)Cc1ccccc1)C(=O)N1CCC[C@H]1C(=O)N1CCC[C@H]1C(=O)N[C@@H](CC(C)C)C(=O)O` (H-FELLPIPPL-OH; N-terminus and C-terminus assumed) yielded an IC50 (Observed Affinity (IC50) of 553 nM. Regarding `CC(C)[C@H](NC(=O)[C@H](CO)NC(=O)[C@H](CS)NC(=O)[C@H](CO)NC(=O)[C@H](CCCCN)NC(=O)[C@@H](NC(=O)[C@H](CCC(=O)O)NC(=O)[C@H](Cc1ccccc1)NC(=O)[C@H](Cc1ccccc1)NC(=O)[C@@H](N)Cc1ccccc1)[C@@H](C)O)C(=O)O` (H-FFFETKSCSV-OH; N-terminus and C-terminus assumed), the IC50 under setting [1] was 61.2 nM.

For the compound `CC[C@H](C)[C@H](NC(=O)[C@@H](NC(=O)[C@H](CO)NC(=O)[C@H](Cc1ccccc1)NC(=O)[C@H](Cc1ccccc1)NC(=O)[C@@H](N)Cc1ccccc1)C(C)C)C(=O)N[C@@H](Cc1ccccc1)C(=O)N[C@@H](CO)C(=O)N[C@H](C(=O)O)[C@@H](C)O` (H-FFFSVIFST-OH; N-terminus and C-terminus assumed), the IC50 under setting [1] was determined as 4560 nM.

Regarding `CC[C@H](C)[C@H](NC(=O)[C@@H](N)Cc1ccccc1)C(=O)N[C@@H](CC(C)C)C(=O)N[C@@H](CCSC)C(=O)N[C@@H](CCC(=O)O)C(=O)N[C@@H](CC(C)C)C(=O)N[C@@H](CCSC)C(=O)N[C@@H](C)C(=O)NCC(=O)NCC(=O)O` (H-FILMELMAGG-OH; N-terminus and C-terminus assumed), under setting [1], the IC50 came out at 1580 nM. Still for that read-out and setting: the same measure for `CC(C)C[C@H](NC(=O)[C@H](Cc1ccccc1)NC(=O)[C@H](CO)NC(=O)[C@H](CC(C)C)NC(=O)[C@H](CS)NC(=O)[C@H](CO)NC(=O)[C@H](Cc1ccccc1)NC(=O)[C@H](CC(C)C)NC(=O)[C@H](CCCCN)NC(=O)[C@@H](N)Cc1ccccc1)C(=O)O` (H-FKLFSCLSFL-OH; N-terminus and C-terminus assumed): 663 nM; for `CC(C)C[C@H](NC(=O)[C@H](C)NC(=O)[C@H](CC(C)C)NC(=O)[C@H](CC(C)C)NC(=O)[C@@H](N)Cc1ccccc1)C(=O)N[C@@H](Cc1c[nH]c2ccccc12)C(=O)N[C@@H](CCC(=O)O)C(=O)N[C@@H](CS)C(=O)N[C@@H](CO)C(=O)O` (H-FLLALWECS-OH; N-terminus and C-terminus assumed): 93.2 nM.
